What was measured:
Parameters in all cases: scale not given: the % may be the effect or the level left
[1] = biological target: T1, Dual specificity mitogen-activated protein kinase kinase 5 (Homo sapiens) (UniProt Q13163); assay: Inhibition of human MEK5 assessed as enzyme activity at 1 uM using ERK5 (K84R) as substrate preincubated for 20 mins followed by [gamma-33P]-ATP addition and measured after 120 mins by radiometric Hot-SpotSM Kinase assay relative to control
T1 sequence (whole entry): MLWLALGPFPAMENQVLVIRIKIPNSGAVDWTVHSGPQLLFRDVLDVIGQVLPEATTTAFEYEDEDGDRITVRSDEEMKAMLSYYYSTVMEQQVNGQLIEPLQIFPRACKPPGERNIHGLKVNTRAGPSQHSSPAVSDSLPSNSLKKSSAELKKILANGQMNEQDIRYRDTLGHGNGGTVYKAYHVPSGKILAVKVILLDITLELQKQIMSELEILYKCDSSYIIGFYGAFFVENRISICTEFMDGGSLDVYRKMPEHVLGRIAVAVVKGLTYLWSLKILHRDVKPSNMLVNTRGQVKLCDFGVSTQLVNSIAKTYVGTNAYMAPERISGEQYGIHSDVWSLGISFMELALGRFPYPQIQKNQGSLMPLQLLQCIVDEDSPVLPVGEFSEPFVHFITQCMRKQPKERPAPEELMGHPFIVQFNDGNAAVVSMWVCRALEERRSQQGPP

[2] = biological target: Tyrosine-protein kinase Lck (Homo sapiens) (UniProt P06239); assay: Inhibition of human LCK assessed as enzyme activity at 1 uM using poly[Glu:Tyr] (4:1) as substrate preincubated for 20 mins followed by [gamma-33P]-ATP addition and measured after 120 mins by radiometric Hot-SpotSM Kinase assay relative to control
[3] = biological target: Mitogen-activated protein kinase kinase kinase 1 (Homo sapiens) (UniProt Q13233); assay: Inhibition of human MEKK1 assessed as enzyme activity at 1 uM using myelin basic protein as substrate preincubated for 20 mins followed by [gamma-33P]-ATP addition and measured after 120 mins by radiometric Hot-SpotSM Kinase assay relative to control
[4] = biological target: Serine/threonine-protein kinase WNK1 (Homo sapiens) (UniProt Q9H4A3); assay: Inhibition of human WNK1 assessed as enzyme activity at 1 uM using myelin basic protein as substrate preincubated for 20 mins followed by [gamma-33P]-ATP addition and measured after 120 mins by radiometric Hot-SpotSM Kinase assay relative to control
[5] = biological target: Serine/threonine-protein kinase 24 (Homo sapiens) (UniProt Q9Y6E0); assay: Inhibition of human MST3 assessed as enzyme activity at 1 uM using myelin basic protein as substrate preincubated for 20 mins followed by [gamma-33P]-ATP addition and measured after 120 mins by radiometric Hot-SpotSM Kinase assay relative to control
[6] = biological target: Activated CDC42 kinase 1 (Homo sapiens) (UniProt Q07912); assay: Inhibition of human ACK1 assessed as enzyme activity at 1 uM using EAIYAAPFAKKK as substrate preincubated for 20 mins followed by [gamma-33P]-ATP addition and measured after 120 mins by radiometric Hot-SpotSM Kinase assay relative to control
[7] = biological target: G protein-coupled receptor kinase 4 (Homo sapiens) (UniProt P32298); assay: Inhibition of human GRK4 assessed as enzyme activity at 1 uM using casein as substrate preincubated for 20 mins followed by [gamma-33P]-ATP addition and measured after 120 mins by radiometric Hot-SpotSM Kinase assay relative to control
[8] = biological target: T2, Ephrin type-B receptor 4 (Homo sapiens) (UniProt P54760); assay: Inhibition of human EPHB4 assessed as enzyme activity at 1 uM using poly[Glu:Tyr] (4:1) as substrate preincubated for 20 mins followed by [gamma-33P]-ATP addition and measured after 120 mins by radiometric Hot-SpotSM Kinase assay relative to control
T2 sequence (whole entry): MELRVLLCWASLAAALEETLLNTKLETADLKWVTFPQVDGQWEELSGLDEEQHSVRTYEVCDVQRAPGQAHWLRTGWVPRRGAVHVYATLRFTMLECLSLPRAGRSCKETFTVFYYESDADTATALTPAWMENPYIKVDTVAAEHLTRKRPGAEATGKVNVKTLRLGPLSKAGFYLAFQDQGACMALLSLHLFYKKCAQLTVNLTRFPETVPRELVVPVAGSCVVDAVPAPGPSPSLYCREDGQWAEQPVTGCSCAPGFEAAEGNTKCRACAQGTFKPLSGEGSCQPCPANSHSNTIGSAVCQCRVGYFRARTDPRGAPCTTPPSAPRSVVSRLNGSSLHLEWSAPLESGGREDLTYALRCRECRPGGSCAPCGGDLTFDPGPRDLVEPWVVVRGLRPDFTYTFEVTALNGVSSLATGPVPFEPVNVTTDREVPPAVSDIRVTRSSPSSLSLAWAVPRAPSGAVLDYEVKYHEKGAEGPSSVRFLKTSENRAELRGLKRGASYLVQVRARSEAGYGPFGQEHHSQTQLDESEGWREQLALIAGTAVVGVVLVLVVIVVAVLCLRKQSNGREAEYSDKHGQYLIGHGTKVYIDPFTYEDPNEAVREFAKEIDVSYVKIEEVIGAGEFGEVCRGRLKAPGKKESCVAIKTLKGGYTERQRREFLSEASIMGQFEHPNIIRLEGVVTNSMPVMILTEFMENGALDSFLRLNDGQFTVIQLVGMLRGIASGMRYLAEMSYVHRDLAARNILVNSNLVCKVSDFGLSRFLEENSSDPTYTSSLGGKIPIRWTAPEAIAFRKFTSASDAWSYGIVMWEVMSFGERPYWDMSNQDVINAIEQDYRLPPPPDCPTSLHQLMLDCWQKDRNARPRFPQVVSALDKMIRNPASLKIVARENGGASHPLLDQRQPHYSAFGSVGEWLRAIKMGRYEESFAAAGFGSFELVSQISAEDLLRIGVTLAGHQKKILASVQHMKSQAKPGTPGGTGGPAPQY

[9] = biological target: T3, Serine/threonine-protein kinase 17A (Homo sapiens) (UniProt Q9UEE5); assay: Inhibition of human DRAK1/STK17A assessed as enzyme activity at 1 uM using KKLNRTLSFAEPG as substrate preincubated for 20 mins followed by [gamma-33P]-ATP addition and measured after 120 mins by radiometric Hot-SpotSM Kinase assay relative to control
T3 sequence (whole entry): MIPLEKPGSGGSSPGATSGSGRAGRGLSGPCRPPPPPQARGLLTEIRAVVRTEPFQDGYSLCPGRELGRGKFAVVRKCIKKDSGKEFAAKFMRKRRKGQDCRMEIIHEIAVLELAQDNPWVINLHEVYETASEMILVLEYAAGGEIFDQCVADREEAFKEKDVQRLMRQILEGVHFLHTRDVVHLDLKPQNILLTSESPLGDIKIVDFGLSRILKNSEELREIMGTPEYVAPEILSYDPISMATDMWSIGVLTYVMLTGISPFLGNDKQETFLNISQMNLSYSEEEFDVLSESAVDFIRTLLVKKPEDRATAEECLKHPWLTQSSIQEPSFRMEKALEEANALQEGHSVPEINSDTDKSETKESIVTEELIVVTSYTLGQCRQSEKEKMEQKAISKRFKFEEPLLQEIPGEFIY

Serine/threonine-protein kinase WNK1 (Homo sapiens), sequence (Q9H4A3 whole entry, looked up): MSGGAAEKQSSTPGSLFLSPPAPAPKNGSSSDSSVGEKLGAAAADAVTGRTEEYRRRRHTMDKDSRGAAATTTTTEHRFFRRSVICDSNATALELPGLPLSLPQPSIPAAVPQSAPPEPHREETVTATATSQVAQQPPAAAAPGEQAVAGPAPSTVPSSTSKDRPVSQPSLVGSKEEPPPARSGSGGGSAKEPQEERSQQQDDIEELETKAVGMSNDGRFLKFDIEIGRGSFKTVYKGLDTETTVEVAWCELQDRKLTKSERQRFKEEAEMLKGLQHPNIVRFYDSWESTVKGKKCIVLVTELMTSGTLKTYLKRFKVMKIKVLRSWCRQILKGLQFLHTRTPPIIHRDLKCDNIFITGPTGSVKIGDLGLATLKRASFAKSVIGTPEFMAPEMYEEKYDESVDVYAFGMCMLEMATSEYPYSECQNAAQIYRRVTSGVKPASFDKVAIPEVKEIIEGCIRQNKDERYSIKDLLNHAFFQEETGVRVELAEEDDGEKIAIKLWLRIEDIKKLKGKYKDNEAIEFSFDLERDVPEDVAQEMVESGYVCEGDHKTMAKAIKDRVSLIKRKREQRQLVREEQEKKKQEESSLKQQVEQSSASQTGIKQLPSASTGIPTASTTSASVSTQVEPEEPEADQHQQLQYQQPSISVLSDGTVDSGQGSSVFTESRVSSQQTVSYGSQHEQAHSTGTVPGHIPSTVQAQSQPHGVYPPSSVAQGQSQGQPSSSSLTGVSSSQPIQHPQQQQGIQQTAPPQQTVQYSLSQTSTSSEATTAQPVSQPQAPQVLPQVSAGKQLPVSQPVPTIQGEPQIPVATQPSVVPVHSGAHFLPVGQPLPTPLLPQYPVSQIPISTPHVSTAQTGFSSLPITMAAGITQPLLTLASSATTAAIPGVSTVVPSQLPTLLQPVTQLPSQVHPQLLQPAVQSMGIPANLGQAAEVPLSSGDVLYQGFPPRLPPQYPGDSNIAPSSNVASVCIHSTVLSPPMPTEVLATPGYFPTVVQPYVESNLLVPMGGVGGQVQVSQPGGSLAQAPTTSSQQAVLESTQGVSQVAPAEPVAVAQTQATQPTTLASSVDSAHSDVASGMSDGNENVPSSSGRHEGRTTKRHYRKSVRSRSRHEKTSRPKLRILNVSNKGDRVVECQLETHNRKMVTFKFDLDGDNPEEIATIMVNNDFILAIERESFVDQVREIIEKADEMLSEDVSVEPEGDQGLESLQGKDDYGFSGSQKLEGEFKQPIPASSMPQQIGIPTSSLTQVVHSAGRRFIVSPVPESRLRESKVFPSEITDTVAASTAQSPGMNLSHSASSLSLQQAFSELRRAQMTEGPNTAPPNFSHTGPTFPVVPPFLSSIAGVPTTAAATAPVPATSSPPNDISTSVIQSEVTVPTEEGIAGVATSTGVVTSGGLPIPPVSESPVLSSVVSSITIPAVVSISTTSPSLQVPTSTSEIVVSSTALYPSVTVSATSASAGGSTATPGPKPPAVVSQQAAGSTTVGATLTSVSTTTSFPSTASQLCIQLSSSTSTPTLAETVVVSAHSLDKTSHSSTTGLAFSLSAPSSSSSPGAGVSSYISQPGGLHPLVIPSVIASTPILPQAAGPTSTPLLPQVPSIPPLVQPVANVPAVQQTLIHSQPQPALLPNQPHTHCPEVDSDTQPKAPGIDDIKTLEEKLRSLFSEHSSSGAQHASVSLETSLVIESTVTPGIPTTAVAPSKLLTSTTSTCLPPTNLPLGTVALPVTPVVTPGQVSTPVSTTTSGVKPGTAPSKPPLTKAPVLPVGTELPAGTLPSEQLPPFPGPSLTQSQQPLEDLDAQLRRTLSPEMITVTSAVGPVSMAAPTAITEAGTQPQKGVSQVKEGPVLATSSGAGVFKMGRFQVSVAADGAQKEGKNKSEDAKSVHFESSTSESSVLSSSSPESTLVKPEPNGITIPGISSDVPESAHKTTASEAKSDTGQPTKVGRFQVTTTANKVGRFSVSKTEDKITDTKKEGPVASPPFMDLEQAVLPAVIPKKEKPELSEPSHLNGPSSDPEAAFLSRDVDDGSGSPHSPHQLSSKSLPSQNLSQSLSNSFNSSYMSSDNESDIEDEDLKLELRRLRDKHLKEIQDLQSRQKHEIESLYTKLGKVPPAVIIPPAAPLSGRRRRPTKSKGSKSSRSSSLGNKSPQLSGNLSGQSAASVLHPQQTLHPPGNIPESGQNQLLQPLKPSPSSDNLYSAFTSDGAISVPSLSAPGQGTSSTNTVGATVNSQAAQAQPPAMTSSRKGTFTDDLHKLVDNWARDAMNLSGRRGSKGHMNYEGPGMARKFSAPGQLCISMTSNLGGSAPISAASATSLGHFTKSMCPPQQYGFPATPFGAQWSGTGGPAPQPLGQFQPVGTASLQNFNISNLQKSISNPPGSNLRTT
Mitogen-activated protein kinase kinase kinase 1 (Homo sapiens), sequence (Q13233 whole entry): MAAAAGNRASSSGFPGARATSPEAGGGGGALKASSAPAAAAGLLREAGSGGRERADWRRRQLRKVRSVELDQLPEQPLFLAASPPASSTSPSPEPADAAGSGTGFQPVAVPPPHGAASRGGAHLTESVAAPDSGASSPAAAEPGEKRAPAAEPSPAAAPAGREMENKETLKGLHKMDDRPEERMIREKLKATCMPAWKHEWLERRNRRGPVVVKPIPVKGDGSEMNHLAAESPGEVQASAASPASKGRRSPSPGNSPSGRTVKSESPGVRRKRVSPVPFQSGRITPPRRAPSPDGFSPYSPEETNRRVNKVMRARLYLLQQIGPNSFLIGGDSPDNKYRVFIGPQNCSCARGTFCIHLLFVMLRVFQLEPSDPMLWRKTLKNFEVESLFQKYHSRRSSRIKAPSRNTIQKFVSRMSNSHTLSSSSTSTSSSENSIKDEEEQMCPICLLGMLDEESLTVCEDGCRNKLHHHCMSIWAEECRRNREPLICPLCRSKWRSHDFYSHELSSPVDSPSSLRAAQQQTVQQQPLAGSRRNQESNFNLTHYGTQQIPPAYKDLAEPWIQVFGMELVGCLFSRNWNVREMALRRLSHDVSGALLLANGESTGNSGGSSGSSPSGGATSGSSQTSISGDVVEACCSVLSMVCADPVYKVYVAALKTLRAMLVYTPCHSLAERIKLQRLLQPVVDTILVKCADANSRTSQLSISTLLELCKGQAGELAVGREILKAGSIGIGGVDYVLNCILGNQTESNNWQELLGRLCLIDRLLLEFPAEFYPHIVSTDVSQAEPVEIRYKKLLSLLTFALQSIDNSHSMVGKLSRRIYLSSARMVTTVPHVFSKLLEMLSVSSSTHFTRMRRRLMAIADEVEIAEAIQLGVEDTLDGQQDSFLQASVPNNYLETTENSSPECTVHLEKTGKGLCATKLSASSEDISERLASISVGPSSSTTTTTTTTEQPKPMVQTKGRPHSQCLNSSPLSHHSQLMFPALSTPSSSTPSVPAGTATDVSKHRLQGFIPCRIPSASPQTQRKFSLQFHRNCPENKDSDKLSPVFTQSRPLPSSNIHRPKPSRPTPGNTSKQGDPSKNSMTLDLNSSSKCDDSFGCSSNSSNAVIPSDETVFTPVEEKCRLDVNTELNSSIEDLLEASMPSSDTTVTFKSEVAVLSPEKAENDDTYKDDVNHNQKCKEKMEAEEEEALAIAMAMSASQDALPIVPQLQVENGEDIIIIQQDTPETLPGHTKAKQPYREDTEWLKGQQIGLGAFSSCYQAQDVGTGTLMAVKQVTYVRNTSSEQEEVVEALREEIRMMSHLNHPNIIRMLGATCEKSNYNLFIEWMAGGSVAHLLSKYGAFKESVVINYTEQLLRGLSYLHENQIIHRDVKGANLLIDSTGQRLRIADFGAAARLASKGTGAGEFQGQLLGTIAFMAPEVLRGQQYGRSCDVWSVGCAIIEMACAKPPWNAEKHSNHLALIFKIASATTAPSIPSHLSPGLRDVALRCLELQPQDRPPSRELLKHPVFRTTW
G protein-coupled receptor kinase 4 (Homo sapiens), sequence (P32298 whole entry, looked up): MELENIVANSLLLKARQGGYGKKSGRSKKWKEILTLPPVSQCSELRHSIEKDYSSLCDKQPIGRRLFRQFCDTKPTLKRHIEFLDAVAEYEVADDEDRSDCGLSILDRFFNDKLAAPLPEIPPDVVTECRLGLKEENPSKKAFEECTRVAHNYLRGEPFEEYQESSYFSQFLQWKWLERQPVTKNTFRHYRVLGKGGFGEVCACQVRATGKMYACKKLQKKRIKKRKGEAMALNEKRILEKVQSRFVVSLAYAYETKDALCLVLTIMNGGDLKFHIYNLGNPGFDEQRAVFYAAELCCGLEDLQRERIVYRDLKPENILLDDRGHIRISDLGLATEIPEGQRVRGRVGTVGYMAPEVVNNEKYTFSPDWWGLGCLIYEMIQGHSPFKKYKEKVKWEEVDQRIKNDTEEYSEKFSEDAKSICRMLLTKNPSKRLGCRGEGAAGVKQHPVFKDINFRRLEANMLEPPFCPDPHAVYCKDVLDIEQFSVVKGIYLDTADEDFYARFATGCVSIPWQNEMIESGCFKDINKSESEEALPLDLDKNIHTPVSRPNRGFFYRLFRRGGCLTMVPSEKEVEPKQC
Serine/threonine-protein kinase 24 (Homo sapiens), sequence (Q9Y6E0 whole entry, looked up): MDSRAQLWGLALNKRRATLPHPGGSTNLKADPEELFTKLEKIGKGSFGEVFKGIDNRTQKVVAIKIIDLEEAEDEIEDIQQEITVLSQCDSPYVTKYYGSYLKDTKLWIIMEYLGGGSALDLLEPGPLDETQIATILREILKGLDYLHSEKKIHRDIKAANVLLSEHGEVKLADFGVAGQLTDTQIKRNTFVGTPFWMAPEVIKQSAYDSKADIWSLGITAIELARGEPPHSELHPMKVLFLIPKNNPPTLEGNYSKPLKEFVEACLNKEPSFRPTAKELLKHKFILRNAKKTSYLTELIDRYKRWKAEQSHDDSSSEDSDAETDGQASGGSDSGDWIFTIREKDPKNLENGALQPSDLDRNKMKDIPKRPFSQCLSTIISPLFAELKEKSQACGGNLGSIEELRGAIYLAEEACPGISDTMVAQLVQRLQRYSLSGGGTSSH

| SMILES | Activity [1] [%] | Activity [2] [%] | Activity [3] [%] | Activity [4] [%] | Activity [5] [%] | Activity [6] [%] | Activity [7] [%] | Activity [8] [%] | Activity [9] [%] |
| --- | --- | --- | --- | --- | --- | --- | --- | --- | --- |
| C[C@H](Nc1ncnc2nc[nH]c12)c1cc2cccc(Cl)c2c(=O)n1-c1ccccc1 | 105 | 94.7 | 107 | 79.4 | 87.3 | 95.5 | 92.2 | 91.5 | 95.4 |
| CC[C@H](Nc1ncnc2[nH]cnc12)c1nc2cccc(F)c2c(=O)n1-c1ccccc1 | 104 | 88.5 | 101 | 90.7 | 88.2 | 90.7 | 93.2 | 92.2 | 95.1 |
| CC(C)Oc1ccc(-c2nn([C@@H](C)c3oc4ccc(F)cc4c(=O)c3-c3cccc(F)c3)c3ncnc(N)c23)cc1F [UMBRALISIB] | 102 | 96.8 | 101 | 100 | 81.6 | 93.6 | 95.1 | 89.7 | 92.4 |

Source: ChEMBL document CHEMBL5715954, “Silencing c-Myc translation as a therapeutic strategy through targeting PI3Kδ and CK1ε in hematological malignancies” (Blood, 2017)
